In ChEMBL document CHEMBL1208678, “Synthesis of some new 4(3H)-quinazolinone-2-carboxaldehyde thiosemicarbazones and their metal complexes and a study on their anticonvulsant, analgesic, cytotoxic and antimicrobial activities - part-1” (Eur J Med Chem, 2010):
Converted amounts (≈) assume the structure as drawn. The source made the active and inactive calls. The calls are words filed in the database; no cut-off is given here.

Experiments:
Mus musculus [1] = experiment: Acute toxicity in mouse assessed as mortality up to 1200 mg/kg, po; type: organism-based; parameters: dose 1200 mg/kg, route oral; conditions: in vivo
Rattus norvegicus [2] = experiment: Anticonvulsant activity against pentylenetetrazole-induced seizure in Wistar rat assessed as shock latency time at 50 mg/kg, ip administered 45 mins before pentylenetetrazole challenge (reference value: 118 seconds); type: functional; conditions: route intraperitoneal
Rattus norvegicus [3] = experiment: Anticonvulsant activity against pentylenetetrazole-induced seizure in Wistar rat assessed as duration of seizure at 50 mg/kg, ip administered 45 mins before pentylenetetrazole challenge (reference value: 312 seconds); type: functional; conditions: route intraperitoneal
Rattus norvegicus [4] = experiment: Anticonvulsant activity in Wistar rat assessed as protection against pentylenetetrazole-induced seizure at 50 mg/kg, ip administered 45 mins before pentylenetetrazole challenge; type: functional, organism-based; parameters: dose 50 mg/kg
Mus musculus [5] = experiment: Analgesic activity in Swiss albino mouse assessed as reaction time at 50 mg/kg, ip after 0.5 hrs by hotplate method (reference value: 7.4 seconds); type: functional; conditions: route intraperitoneal
Mus musculus [6] = experiment: Analgesic activity in Swiss albino mouse assessed as reaction time at 50 mg/kg, ip after 1 hr by hotplate method (reference value: 7.5 seconds); type: functional; conditions: route intraperitoneal
[7] = Cytotoxicity against mouse EAC cells assessed as cell death at 25 ug/ml after 2 hrs by Trypan blue exclusion method; type: functional, Ehrlich
[8] = Cytotoxicity against mouse EAC cells assessed as cell death at 50 ug/ml after 2 hrs by Trypan blue exclusion method; type: functional, Ehrlich
[9] = Cytotoxicity against mouse EAC cells assessed as cell death at 100 ug/ml after 2 hrs by Trypan blue exclusion method; type: functional, Ehrlich
Bacillus subtilis [10] = experiment: Antibacterial activity against Bacillus subtilis ATCC 6633 at 100 ug after 24 hrs by paper disc method; type: functional; conditions: ATCC 6633, 24 h, read-out: IZ
Staphylococcus aureus [11] = experiment: Antibacterial activity against Staphylococcus aureus ATCC 6538 at 100 ug after 24 hrs by paper disc method; type: functional; conditions: ATCC 6538, 24 h, read-out: IZ
Escherichia coli [12] = experiment: Antibacterial activity against Escherichia coli ATCC 7839 at 100 ug after 24 hrs by paper disc method; type: functional; conditions: ATCC 7839, 24 h, read-out: IZ
Pseudomonas aeruginosa = experiment: Antibacterial activity against Pseudomonas aeruginosa ATCC 9027 at 100 ug after 24 hrs by paper disc method; type: functional; conditions: ATCC 9027, 24 h, read-out: IZ
Aspergillus ochraceus = experiment: Antifungal activity against Aspergillus ochraceus Wilhelm at 100 ug after 24 hrs by paper disc method; type: functional; conditions: for zone of inhibition at 100 µg/disc: read-out: IZ
Fusarium oxysporum [13] = experiment: Antifungal activity against Fusarium oxysporum at 100 ug after 24 hrs by paper disc method; type: functional; conditions: for zone of inhibition at 100 µg/disc: read-out: IZ
Fusarium oxysporum [14] = experiment: […] activity against Fusarium oxysporum after 24 hrs by twofold serial dilution method; type: functional
Bacillus subtilis [15] = experiment: Antibacterial activity against Bacillus subtilis ATCC 6633 after 24 hrs by twofold serial dilution method; type: functional; conditions: ATCC 6633, 24 h
Staphylococcus aureus [16] = experiment: Antibacterial activity against Staphylococcus aureus ATCC 6538 after 24 hrs by twofold serial dilution method; type: functional; conditions: ATCC 6538, 24 h
Escherichia coli [17] = experiment: Antibacterial activity against Escherichia coli ATCC 7839 after 24 hrs by twofold serial dilution method; type: functional; conditions: ATCC 7839, 24 h
Rattus norvegicus [18] = experiment: Anticonvulsant activity against pentylenetetrazole-induced seizure in Wistar rat assessed as shock latency time at 2 mg/kg, ip administered 45 mins before pentylenetetrazole challenge (reference value: 118 seconds); type: functional; conditions: route intraperitoneal
Rattus norvegicus [19] = experiment: Anticonvulsant activity against pentylenetetrazole-induced seizure in Wistar rat assessed as duration of seizure at 2 mg/kg, ip administered 45 mins before pentylenetetrazole challenge (reference value: 312 seconds); type: functional; conditions: route intraperitoneal
Rattus norvegicus [20] = experiment: Anticonvulsant activity in Wistar rat assessed as protection against pentylenetetrazole-induced seizure at 2 mg/kg, ip administered 45 mins before pentylenetetrazole challenge; type: functional, organism-based; parameters: dose 2 mg/kg
Mus musculus [21] = experiment: Analgesic activity in Swiss albino mouse assessed as reaction time at 2 mg/kg, ip after 0.5 hrs by hotplate method (reference value: 7.4 seconds); type: functional; conditions: route intraperitoneal
Mus musculus [22] = experiment: Analgesic activity in Swiss albino mouse assessed as reaction time at 2 mg/kg, ip after 1 hr by hotplate method (reference value: 7.5 seconds); type: functional; conditions: route intraperitoneal

Compound	Activity (Mus musculus [1])	Time (Rattus norvegicus [2])	Time (Rattus norvegicus [3])	Activity (Rattus norvegicus [4])	Time (Mus musculus [5])	Time (Mus musculus [6])	zone of inhibition at 100 µg/disc (Bacillus subtilis [10])	zone of inhibition at 100 µg/disc (Staphylococcus aureus [11])	zone of inhibition at 100 µg/disc (Escherichia coli [12])	zone of inhibition at 100 µg/disc (Pseudomonas aeruginosa)	other results
O=c1c2cc(I)ccc2nc(/C=N/NC(=S)Nc2ccccc2)n1-c1ccc(F)cc1	Non-toxic	120 s	350 s	inactive	8 s	13.5 s	0 mm	0 mm	8 mm	0 mm	Activity [7]: 0%; Activity [8]: 0%; Activity [9]: 0%; zone of inhibition at 100 µg/disc (Aspergillus ochraceus): 0 mm; zone of inhibition at 100 µg/disc (Fusarium oxysporum [13]): 25 mm
O=c1c2cc(I)ccc2nc(/C=N/NC(=S)Nc2ccccc2)n1-c1ccccc1	Non-toxic				10.2 s	19.2 s					
CNC(=S)N/N=C/c1nc2ccc(I)cc2c(=O)n1-c1ccccc1	Non-toxic										MIC (Fusarium oxysporum [14]): 6 µg/mL (≈ 13 µM)
NYSTATIN											inhibition zone (IZ) (Aspergillus ochraceus): 12 mm; inhibition zone (IZ) (Fusarium oxysporum [13]): 20 mm
CCNC(=S)N/N=C/c1nc2ccc(I)cc2c(=O)n1-c1ccc(F)cc1	Non-toxic	280 s	520 s	inactive							
NC(=S)N/N=C/c1nc2ccc(I)cc2c(=O)n1-c1ccccc1	Non-toxic				18.6 s	26.6 s	9 mm	8 mm	0 mm	0 mm	MIC (Bacillus subtilis [15]): 100 µg/mL (≈ 223 µM); MIC (Staphylococcus aureus [16]): 100 µg/mL (≈ 223 µM); MIC (Escherichia coli [17]): 100 µg/mL (≈ 223 µM); zone of inhibition at 100 µg/disc (Aspergillus ochraceus): 0 mm; zone of inhibition at 100 µg/disc (Fusarium oxysporum [13]): 23 mm; MIC (Fusarium oxysporum [14]): 12.5 µg/mL (≈ 27.8 µM)
CNC(=S)N/N=C/c1nc2ccc(I)cc2c(=O)n1-c1ccc(F)cc1	Non-toxic	380 s	580 s	inactive	11.1 s	19.2 s					Activity [7]: 0%; Activity [8]: 0%; Activity [9]: 20%
NC(=S)N/N=C/c1nc2ccc(I)cc2c(=O)n1-c1ccc(F)cc1	Non-toxic	660 s	760 s	inactive	19.2 s	27.2 s					Activity [7]: 0%; Activity [8]: 10%; Activity [9]: 40%; MIC (Fusarium oxysporum [14]): 12.5 µg/mL (≈ 26.8 µM)
CCn1cc(C(=O)O)c(=O)c2cc(F)c(N3CCNCC3)cc21 [NORFLOXACIN]							35 mm	27 mm	17 mm	15 mm	
CN1C(=O)CN=C(c2ccccc2)c2cc(Cl)ccc21 [DIAZEPAM]											Time (Rattus norvegicus [18]): 3600 s; Time (Rattus norvegicus [19]): 0 s; Activity (Rattus norvegicus [20]): Active; Time (Mus musculus [21]): 62.9 s; Time (Mus musculus [22]): 65.9 s
CCNC(=S)N/N=C/c1nc2ccc(I)cc2c(=O)n1-c1ccccc1	Non-toxic						0 mm	0 mm	0 mm	0 mm	zone of inhibition at 100 µg/disc (Aspergillus ochraceus): 0 mm; zone of inhibition at 100 µg/disc (Fusarium oxysporum [13]): 15 mm
CC[C@H]1OC(=O)[C@H](C)[C@@H](O[C@H]2C[C@@](C)(OC)[C@@H](O)[C@H](C)O2)[C@H](C)[C@@H](O[C@@H]2O[C@H](C)C[C@H](N(C)C)[C@H]2O)[C@](C)(O)C[C@@H](C)C(=O)[C@H](C)[C@@H](O)[C@]1(C)O [ERYTHROMYCIN]							30 mm		15 mm	16 mm	
